In PMC11995724, “Antibiotic target discovery by integrated phenotypic and activity-based profiling of electrophilic fragments” (Cell chemical biology, 2025):

test: in vitro; details: human, hek293t cells

Row | SMILES | viability at 48 h, 25 µM [%]
1 | Cc1cc(C=C(C#N)C(=O)Nc2ccccc2)c(C)n1C1CC1 [8-E14, 2-cyano-3-(1-cyclopropyl-2,5-dimethyl-1H-pyrrol-3-yl)-N-phenylprop-2-enamide] | 91.7
2 | N#CC(=Cc1ccccc1)C(=O)Nc1ccc(N2CCCCC2)cc1 [8-E15, 2-cyano-3-phenyl-N-[4-(piperidin-1-yl)phenyl]prop-2-enamide] | 64.7
3 | Cc1ccc(C=C(C#N)C(=O)Nc2ccccc2C(F)(F)F)cc1 [8-E16, 2-cyano-3-(4-methylphenyl)-N-[2-(trifluoromethyl)phenyl]prop-2-enamide] | 96.3
4 | Cc1ccc(C=C(C#N)C(=O)N2CCCC2)cc1 [8-E17, 3-(4-methylphenyl)-2-(pyrrolidine-1-carbonyl)prop-2-enenitrile] | 75.4
5 | COc1ccccc1NC(=O)C(C#N)=Cc1ccc(F)cc1 [8-E18, 2-cyano-3-(4-fluorophenyl)-N-(2-methoxyphenyl)prop-2-enamide] | 81
6 | Cc1cc(C)c(NC(=O)C(C#N)=Cc2ccccc2)c(C)c1 [8-E19, 2-cyano-3-phenyl-N-(2,4,6-trimethylphenyl)prop-2-enamide] | 29.4
7 | N#CC(=CNc1ccc(F)cc1)C(=O)NCc1ccccc1 [8-E20, N-benzyl-2-cyano-3-[(4-fluorophenyl)amino]prop-2-enamide] | 98.3
8 | C=CCNC(=O)C(C#N)=Cc1ccc(OC)c(O)c1 [8-E21, 2-cyano-3-(3-hydroxy-4-methoxyphenyl)-N-(prop-2-en-1-yl)prop-2-enamide] | 75.7
9 | Cc1c(C=C(C#N)C(=O)NCC2(c3ccccc3)CC2)cc(C#N)n1C [8-E22, 2-cyano-3-(5-cyano-1,2-dimethyl-1H-pyrrol-3-yl)-N-[(1-phenylcyclopropyl)methyl]prop-2-enamide] | 79.4
10 | N#CC(=Cc1ccccc1Cl)C(=O)Nc1ccc2c(c1)OCCO2 [8-F03, 3-(2-chlorophenyl)-2-cyano-N-(2,3-dihydro-1,4-benzodioxin-6-yl)prop-2-enamide] | 94.9
11 | N#CC(=Cc1cc(C#N)cs1)C(=O)NC(N)=O [8-F04, {2-cyano-2-[(4-cyanothiophen-2-yl)methylidene]acetyl}urea] | 85.8
12 | N#CC(=Cc1ccccc1OCc1ccccc1)C(=O)NC(N)=O [8-F05, (2-{[2-(benzyloxy)phenyl]methylidene}-2-cyanoacetyl)urea] | 84.9
13 | COc1cccc(NC(=O)C(C#N)=Cc2cccc(Cl)c2Cl)c1 [8-F06, 2-cyano-3-(2,3-dichlorophenyl)-N-(3-methoxyphenyl)prop-2-enamide] | 29.8
14 | N#CC(=Cc1ccc(O)c(O)c1)C(=O)Nc1cccc(Cl)c1Cl [8-F07, 2-cyano-N-(2,3-dichlorophenyl)-3-(3,4-dihydroxyphenyl)prop-2-enamide] | 77.6
15 | CC(=Cc1ccccc1)C=C(C#N)C(=O)Nc1nccs1 [8-F08, 2-cyano-4-methyl-5-phenyl-N-(1,3-thiazol-2-yl)penta-2,4-dienamide] | 84.2
16 | COc1ccc(NC(=O)C(C#N)=Cc2cccc(O)c2)cc1OC [8-F09, 2-cyano-N-(3,4-dimethoxyphenyl)-3-(3-hydroxyphenyl)prop-2-enamide] | 86.1
17 | N#CC(=Cc1cccs1)C(=O)Nc1ccc(F)cc1 [8-F10, 2-cyano-N-(4-fluorophenyl)-3-(thiophen-2-yl)prop-2-enamide] | 102
18 | Cc1ccc(NC(=O)C(C#N)=Cc2cccc(F)c2)cc1 [8-F11, 2-cyano-3-(3-fluorophenyl)-N-(4-methylphenyl)prop-2-enamide] | 85.7
19 | CC1CCCCC1NC(=O)C(C#N)=CC=Cc1ccccc1[N+](=O)[O-] (centres unmarked) [8-F12, 2-cyano-N-(2-methylcyclohexyl)-5-(2-nitrophenyl)penta-2,4-dienamide] | 36
20 | COc1ccc(C=C(C#N)C(=O)Nc2cccc3c2C(=O)NC3=O)cc1 [8-F13, 2-cyano-N-(1,3-dioxo-2,3-dihydro-1H-isoindol-4-yl)-3-(4-methoxyphenyl)prop-2-enamide] | 119
21 | N#CC(=Cc1ccc(OC(F)F)cc1)C(=O)Nc1nccs1 [8-F14, 2-cyano-3-[4-(difluoromethoxy)phenyl]-N-(1,3-thiazol-2-yl)prop-2-enamide] | 113
22 | COc1cc(C=C(C#N)C(=O)NC(C)C)cc(OC)c1 [8-F15, 2-cyano-3-(3,5-dimethoxyphenyl)-N-(propan-2-yl)prop-2-enamide] | 82.4
23 | N#CC(=Cc1cccc([N+](=O)[O-])c1)C(=O)NCc1ccc(Cl)cc1 [8-F16, N-[(4-chlorophenyl)methyl]-2-cyano-3-(3-nitrophenyl)prop-2-enamide] | 0.958
24 | Cn1ccc(NC(=O)C(C#N)=Cc2ncccc2C(F)(F)F)n1 [8-F17, 2-cyano-N-(1-methyl-1H-pyrazol-3-yl)-3-[3-(trifluoromethyl)pyridin-2-yl]prop-2-enamide] | 95.2
25 | Cc1cccc(C=C(C#N)C(=O)NC(C)c2ccccc2)c1 (centres unmarked) [8-F18, 2-cyano-3-(3-methylphenyl)-N-(1-phenylethyl)prop-2-enamide] | 36.3

Row | SMILES | viability at 48 h, 25 µM [%]
26 | N#CC(=CC=Cc1ccccc1[N+](=O)[O-])C(N)=O [8-F19, 2-cyano-5-(2-nitrophenyl)penta-2,4-dienamide] | 1.55
27 | N#CC(=Cc1ccc(-c2ccccc2Cl)o1)C(=O)N1CCCCC1 [8-F20, 3-[5-(2-chlorophenyl)furan-2-yl]-2-(piperidine-1-carbonyl)prop-2-enenitrile] | 66.6
28 | N#CC(=Cc1cc([N+](=O)[O-])ccc1Cl)C(N)=O [8-F21, 3-(2-chloro-5-nitrophenyl)-2-cyanoprop-2-enamide] | 101
29 | N#CC(=Cc1cc2c(cc1[N+](=O)[O-])OCO2)C(=O)NC1CCCCC1 [8-F22, 2-cyano-N-cyclohexyl-3-(6-nitro-1,3-dioxaindan-5-yl)prop-2-enamide] | 87.7
30 | COc1ccc(C=C(C#N)C(=O)Nc2ccccc2[N+](=O)[O-])cc1 [8-G03, 2-cyano-3-(4-methoxyphenyl)-N-(2-nitrophenyl)prop-2-enamide] | 96.8
31 | CCc1ccc(NC(=O)C(C#N)=Cc2cccnc2)cc1 [8-G04, 2-cyano-N-(4-ethylphenyl)-3-(pyridin-3-yl)prop-2-enamide] | 86.1
32 | CC1CN(C(=O)C(C#N)=Cc2ccc(OC(F)F)cc2)CC(C)O1 (centres unmarked) [8-G05, 3-[4-(difluoromethoxy)phenyl]-2-(2,6-dimethylmorpholine-4-carbonyl)prop-2-enenitrile] | 97.8
33 | Cc1c(C=C(C#N)C(=O)Nc2ccccn2)cc(C#N)n1C [8-G06, 2-cyano-3-(5-cyano-1,2-dimethyl-1H-pyrrol-3-yl)-N-(pyridin-2-yl)prop-2-enamide] | 94.1
34 | Cc1ccsc1C=C(C#N)C(=O)NC1CCCCC1C (centres unmarked) [8-G07, 2-cyano-N-(2-methylcyclohexyl)-3-(3-methylthiophen-2-yl)prop-2-enamide] | 61.1
35 | N#CC(=Cc1cc(F)ccc1F)C(=O)NC1CCCCC1 [8-G08, 2-cyano-N-cyclohexyl-3-(2,5-difluorophenyl)prop-2-enamide] | 9.88
36 | COc1ccc(C=C(C#N)C(=O)Nc2ccccc2OC)cc1 [8-G09, 2-cyano-N-(2-methoxyphenyl)-3-(4-methoxyphenyl)prop-2-enamide] | 80.4
37 | Cc1ccc(C=C(C#N)C(=O)NC2CCCCC2)cc1C [8-G10, 2-cyano-N-cyclohexyl-3-(3,4-dimethylphenyl)prop-2-enamide] | 59.4
38 | CCc1ccc(C=C(C#N)C(=O)Nc2cc(C)c(Cl)cc2OC)cc1 [8-G11, N-(4-chloro-2-methoxy-5-methylphenyl)-2-cyano-3-(4-ethylphenyl)prop-2-enamide] | 92
39 | CC(C)NC(=O)C(C#N)=Cc1ccc(OC(C)C)cc1 [8-G12, 2-cyano-N-(propan-2-yl)-3-[4-(propan-2-yloxy)phenyl]prop-2-enamide] | 64.9
40 | N#CC(=Cc1cccs1)C(=O)Nc1nccs1 [8-G13, 2-cyano-N-(1,3-thiazol-2-yl)-3-(thiophen-2-yl)prop-2-enamide] | 110
41 | Cc1cc(C=C(C#N)C(=O)NCc2ccccc2)c(C)n1C1CC1 [8-G14, N-benzyl-2-cyano-3-(1-cyclopropyl-2,5-dimethyl-1H-pyrrol-3-yl)prop-2-enamide] | 74
42 | CSc1ccc(C=C(C#N)C(=O)Nc2c(C)cc(C)cc2C)cc1 [8-G15, 2-cyano-3-[4-(methylsulfanyl)phenyl]-N-(2,4,6-trimethylphenyl)prop-2-enamide] | 111
43 | Cc1ccc(C=C(C#N)C(=O)Nc2ccccc2C)cc1 [8-G16, 2-cyano-N-(2-methylphenyl)-3-(4-methylphenyl)prop-2-enamide] | 118
44 | N#CC(=Cc1ccccc1)C(=O)NC1CCCCCCC1 [8-G17, 2-cyano-N-cyclooctyl-3-phenylprop-2-enamide] | 46.6
45 | COc1cccc(NC(=O)C(C#N)=Cc2ccc(C#N)cc2)c1 [8-G18, 2-cyano-3-(4-cyanophenyl)-N-(3-methoxyphenyl)prop-2-enamide] | 60.2
46 | COc1ccc(C=C(C#N)C(=O)Nc2nccs2)cc1O [8-G19, 2-cyano-3-(3-hydroxy-4-methoxyphenyl)-N-(1,3-thiazol-2-yl)prop-2-enamide] | 85
47 | CC1(C)Cc2cc(C=C(C#N)C(=O)Nc3ccccc3F)ccc2O1 [8-G20, 2-cyano-3-(2,2-dimethyl-2,3-dihydro-1-benzofuran-5-yl)-N-(2-fluorophenyl)prop-2-enamide] | 68
48 | CCOc1ccccc1NC(=O)C(C#N)=Cc1c(F)cccc1F [8-G21, 2-cyano-3-(2,6-difluorophenyl)-N-(2-ethoxyphenyl)prop-2-enamide] | 78.1
49 | CCOc1ccc(C=C(C#N)C(=O)N2CCc3sccc3C2)cc1 [8-G22, 3-(4-ethoxyphenyl)-2-{4H,5H,6H,7H-thieno[3,2-c]pyridine-5-carbonyl}prop-2-enenitrile] | 61.5
50 | N#CC(=Cc1ccc2c(c1)OCCO2)C(=O)NCc1ccccc1 [8-H03, N-benzyl-2-cyano-3-(2,3-dihydro-1,4-benzodioxin-6-yl)prop-2-enamide] | 127
